Laboratory results as given in patent US20130012443A1, “METHODS OF TREATMENT OF CENTRAL NERVOUS SYSTEM HEMORRHAGE USING PROTOPORPHYRIN IX-FE COMPOUNDS” (priority 2011, published 2013).
“Also recorded” adds a separate entry of the source.

Assays:
[1] = tested on: mouse model of intracerebral hemorrhage (ICH); assay: Evan's blue leakage (blood-brain barrier disruption) after ICH induced by striatal autologous blood injection; assay type: in vivo, mice
Protocol: Mice were treated with 26 mg/kg hemin i.p. 1 hour later, as a one-time dose, or repeated in 24 hours; controls received vehicle i.p. only. Evan's blue leakage into the striatal parenchyma, a marker of blood-brain barrier disruption, was quantified at 3 days. […] Sham mice received anesthesia and needle trauma only. *P<0.05, **P<0.01, hemin treated v. vehicle-treated controls.
The effect of protoporphyrin IX-Fe compounds on subsequent exposure of nervous tissue to toxic doses of hemin was investigated. A mouse model of intracerebral hemorrhage (ICH) was used. ICH was induced in mice (6-7/condition, 9-10 weeks old) by injecting 25 μl autologous blood (FIG. 1A) into the right striatum. One hour after hemorrhage induction, mice were treated with (a) hemin at 26 mg/kg as a one-time dose, (b) hemin at 26 mg/kg at 1 hour after induction and then repeated at 25 hours after induction, or (c) sterile saline solution only. […] Mice were then treated with vehicle or hemin 1 hour later, with repeated dose 24 hours later. All treatments were administered via intraperitoneal injection. Three days after hemorrhage induction, brains were harvested after Evans blue injection, and slices were examined for Evan's blue fluorescence. […] Evan's blue leakage into the striatal parenchyma was quantified as a marker of blood-brain barrier disruption (FIGS. 1A-1B).

[2] = tested on: mouse model of intracerebral hemorrhage (ICH); assay: Evan's blue leakage (blood-brain barrier disruption) after ICH induced by collagenase injection; assay type: in vivo, mice; conditions: 26 mg/kg 1 or 3 hours after collagenase and again 24 h later, v. vehicle
striatal cells = assay: Striatal cell viability by MTT assay after ICH; assay type: in vivo, mice; conditions: v. vehicle
Protocol: Intracerebral hemorrhage was modeled in 2-3 month old mice (5-6/condition) by striatal injection of autologous blood (25 μl) or collagenase (0.014 units), followed 1 or 3 hours later by 4 mg/kg hemin i.p. (repeated 24 h later) or vehicle. Five days after ICH, striatal cell viability was quantified by MTT assay. *P<0.05, **P<0.01, hemin treated v. vehicle-treated controls.
Whether protoporphyrin IX-Fe compounds could reduce hemorrhage-induced cell death in nervous tissues was investigated using the same mouse model of ICH. Intracerebral hemorrhage was modeled in 2-3 month old mice (5-6/condition) by striatal injection of autologous blood (25 μl) or collagenase (0.014 units), followed 1 or 3 hours later by 4 mg/kg hemin i.p. (repeated 24 h later) or vehicle. Five days after ICH, striatal cell viability was quantified by MTT assay (Chen et al., J Neurosurg 2011 114:1159-67) after striatal cell dissociation (FIG. 2). ICH was also modeled by striatal injection of […] autologous blood, followed by hemin (26 mg/kg) or vehicle treatment at 3 and 27 hours after ICH.

heme oxygenase-1 (HO-1) = assay: HO-1 expression in mouse brain by immunoblotting; assay type: in vivo; conditions: 26 mg/kg i.p. for 1 or 2 days, v. saline; for HO-1 expression in cortex (CTX) / HO-1 expression in striatum (STR): 24 hours after last dose, FIG. 4
Protocol: Mice received 26 mg/kg hemin i.p for 1 or 2 days, or an equal volume of saline. Striatal HO-1 expression was assessed 24 hours after the last hemin dose. Actin levels provide a gel-loading control. *P<0.05 v. expression in saline-treated controls, n=4/conditon.
Mice received 26 mg/kg hemin or heme arginate i.p for 1 or 2 days, or an equal volume of saline. HO-1 expression was assessed 24 hours after last dose. Actin serves as a control.
The response elicited by protoporphyrin IX-Fe compounds was investigated by administering 26 mg/kg hemin, or an equal volume of saline for 1 or 2 days via intraperitoneal injection. Expression of heme oxygenase-1 (HO-1) in striatal cells was assessed 24 hours after the last hemin dose. Four mice were used for each experimental group. Actin was used as a gel-loading control. HO-1 expression was quantified by immunoblotting as previously described (Neuropharmacology 2011 60:423-431); band density was analyzed using Kodak 1D software (Kodak, Rochester, N.Y.) (FIG. 3).
The effect of protoporphyrin IX-Fe compounds on HO-1 expression in nervous tissue was further investigated using heme arginate and examining the response in the cortex in addition to the striatum. Mice received 26 mg/kg hemin or heme arginate for 1 or 2 days, or an equal volume of saline. All treatments were administered intraperitoneally. HO-1 expression was quantified by immunoblotting as previously described (Neuropharmacology 2011 60:423-431).

HO-1 = conditions: low doses; cited from earlier work
[3] = bound to albumin; cited from earlier work

Row | Substance | Evan's blue leakage into the striatal parenchyma, a marker of blood-brain barrier disruption ([1]; striatal autologous blood injection, 26 mg/kg i.p. 1 hour later, one-time dose or repeated in 24 hours, quantified at 3 days, v. vehicle, 26 mg/kg) | Evan's blue fluorescence in brain slices ([1]; three days after hemorrhage induction, DsRed filter, data not shown) | Evan's blue leakage into the striatal parenchyma, a marker of blood-brain barrier disruption [2] | striatal cell viability (MTT assay) (striatal cells; autologous blood (25 μl) or collagenase (0.014 units), 4 mg/kg i.p. 1 or 3 hours later, repeated 24 h later, five days after ICH, 4 mg/kg) | MTT staining intensity / tissue viability (striatal cells; autologous blood, 26 mg/kg at 3 and 27 hours after ICH, data not shown) | HO-1 expression in cortex (CTX) (heme oxygenase-1 (HO-1)) | HO-1 expression in striatum (STR) (heme oxygenase-1 (HO-1)) | Striatal HO-1 expression (heme oxygenase-1 (HO-1); 24 hours after the last dose, FIG. 3) | HO-1 expression in cultured cells (HO-1) | blood vessel inflammation and damage (phlebitis) [3] | stability [3]
1 | chloride salt of protoporphyrin IX-Fe^3+ [hemin] | attenuated blood-brain barrier disruption following simulated hemorrhage in a dose-dependent manner; also recorded: decreases blood-brain barrier disruption | Reduced fluorescence | decreases blood-brain barrier disruption | increased striatal cell viability; also recorded: increases peri-hematomal cell viability | increased tissue viability | increases HO-1 expression | increases HO-1 expression | increased expression of HO-1; also recorded: increases expression of the protective enzyme heme oxygenase-1 (HO-1) | could induce HO-1 expression | less blood vessel inflammation and damage (phlebitis) | more stable
2 | heme arginate | – | – | – | – | – | increases HO-1 expression | increases HO-1 expression | – | – | – | –
